# Tested on: organisms isolated from the infected wounds at baseline
# Assay: Gentamicin MIC testing against all isolated pathogens up to 1024 μg/mL
# Format: cell-based
# Details: 87 of 95 organisms isolated at baseline
# Procedure: Minimum inhibitory concentration (MIC) testing was performed on all isolated pathogens to determine susceptibility to systemic concentrations of levofloxacin, linezolid, vancomycin and oxacillin for gram-positive species and levofloxacin, aztreonam and piperacillin/tazobactam for gram-negative species. Definitive gentamicin MIC testing against all isolated pathogens up to 1024 μg/mL to mimic high local concentrations were also performed.
compound,measurement,value
"CN[C@@H]1[C@@H](O)C(O[C@@H]2[C@@H](O)[C@H](O[C@H]3O[C@H]([C@@H](C)NC)CC[C@H]3N)[C@@H](N)C[C@H]2N)OC[C@]1(C)O (stereo partly drawn) [gentamicin, (3R,4R,5R)-2-{[(1S,2S,3R,4S,6R)-4,6-diamino-3-{[(2R,3R,6S)-3-amino-6-[(1R)-1-(methylamino)ethyl]oxan-2-yl]oxy}-2-hydroxycyclohexyl]oxy}-5-methyl-4-(methylamino)oxane-3,5-diol]",organisms whose gentamicin MIC would be exceeded by a local concentration of up to 1000 μg/mL,92%

# Source: patent publication US20120258174A1, “Methods for Treating Bacterial Infection” (Innocoll Technologies Limited, priority 2011, published 2012)
